In data set [1] the test system is PMN interaction to an activated HUVEC monolayer. Put plainly: Flow chamber assay: PMN interaction with activated HUVEC monolayer (capture, rolling, adhesion). Format: cell-based, human. The note with it: for inhibition of PMN/neutrophil-endothelium interactions in flow chamber: concentration not given. An excerpt: FIGS. 2A-2C are a series of charts reporting data from flow chamber analysis to determine the inhibitory capability of five polypeptides of the present disclosure (Pep57 (SEQ ID NO:12); Pep59 (SEQ ID NO:13), Pep60 (SEQ ID NO:15), Pep83 (SEQ ID NO:16) and Pep84 (SEQ ID NO:14)) and Ac-ANAX1(2-26)-OH to reduce PMN interaction to an activated HUVEC monolayer.
FIGS. 4A-4C are a series of bar charts reporting percent inhibition provided by three polypeptides (UGP022 (SEQ ID NO:5); UGP025 (SEQ ID NO:7) and UGP026 (SEQ ID NO:8)) of the present disclosure, at different concentrations, on three different parameters (capture—FIG. 4A; rolling—FIG. 4B; and adhesion—FIG. 4C).
FIGS. 2A-2C are a series of charts reporting data from flow chamber analysis to determine the inhibitory capability of five polypeptides (Pep57 (SEQ ID NO: 12); Pep59 (SEQ ID NO: 13), Pep60 (SEQ ID NO: 15), Pep83 (SEQ ID NO: 16) and Pep84 (SEQ ID NO: 14)) of the present disclosure and Ac-ANAX1(2-26)-OH to reduce PMN interaction to an activated HUVEC monolayer. PMNs (5×10^6) were incubated with 10 μM of the various peptides for 10 min at 37° C. The PMNs were then flowed for 8 min at 1 dyne/cm^2, prior to quantifying the degree of PMN interaction with the HUVECs, both as PMN capture (FIG. 2A), adhesion (FIG. 2B) and rolling (FIG. 2C). […] Data are mean±SEM of 3 independent experiments (with distinct PMN and HUVEC preparations); *=P<0.05 vs. CT group, data analyzed using one way ANOVA.
FIGS. 4A-4C make a direct comparison of the activities of UGP022 (SEQ ID NO:5), UGP025 (SEQ ID NO: 7) and UGP026 (SEQ ID NO: 8) in the flow chamber assay, presenting the degree of inhibition on the three parameters under analysis (capture (FIG. 4A); rolling (FIG. 4B) and adhesion (FIG. 4C)).

In data set [2] the test system is phagocytosis of apoptotic cells. As to the kind of experiment: Phagocytosis of apoptotic PMN (efferocytosis). Format: cell-based. An excerpt:
FIG. 5 is a series of bar charts reporting the ability of three polypeptides (UGP022 (SEQ ID NO:5); UGP025 (SEQ ID NO:7) and UGP026 (SEQ ID NO:8))_of the present disclosure, at different concentrations, to mimic an Annexin A1 property of inducing phagocytosis of apoptotic cells.
In recent years important pro-resolving properties have been ascribed to Annexin A1, namely the induction of phagocytosis of apoptotic cells by macrophages and cells alike. This effect is also reliant on FPR2 and shared with other important pro-resolving mediators including the lipoxins and the resolvins.
FIG. 5 is a series of bar charts reporting the ability of three polypeptides (UGP022 (SEQ ID NO:5); UGP025 (SEQ ID NO:7) and UGP026 (SEQ ID NO:8)) of the present disclosure, at different concentrations, to mimic an Annexin A1 property of inducing phagocytosis of apoptotic cells.

Data set [3] concerns reperfusion injury. As to the kind of experiment: Myocardial ischemia/reperfusion injury, infarct size (LADCA occlusion). The format is in vivo, C57/B16 mice. Conditions: i.v. bolus at beginning of reperfusion; 25 min ischemia, 120 min reperfusion. Here is the method:
Infarct size in C57/B16 mice (˜30 g body weight) following 25 min ischemia (occlusion of the left anterior descending coronary artery; [LADCA]) and 120 min reperfusion. Vehicle or UGP022 (SEQ ID NO:5) were administered i.v. (over 5 sec bolus) at beginning of reperfusion. Area at Risk was measured following re-occlusion and injection of Evans blue dye. Infarct size was determined following NBT staining of the Area at Risk. Results are mean±SEM of 4 mice per group; **P<0.01
Infarct size in C57/B16 mice (˜30 g body weight) following 25 min ischemia (LADCA occlusion) and 120 min reperfusion. Vehicle, UGP025 (SEQ ID NO:7) (5 μg) or UGP026 (SEQ ID NO:8) (5 μg) were administered i.v. (over 5 sec bolus) at beginning of reperfusion. Area at Risk was measured following re-occlusion and injection of Evans blue dye. Infarct size was determined following NBT staining of the Area at Risk. Results are mean±SEM of 4 mice per group; **P<0.01

Data set [4] has as its target T1, PR3 (Homo sapiens, UniProt P24158).
T1 sequence (P24158 28-248 limits assumed): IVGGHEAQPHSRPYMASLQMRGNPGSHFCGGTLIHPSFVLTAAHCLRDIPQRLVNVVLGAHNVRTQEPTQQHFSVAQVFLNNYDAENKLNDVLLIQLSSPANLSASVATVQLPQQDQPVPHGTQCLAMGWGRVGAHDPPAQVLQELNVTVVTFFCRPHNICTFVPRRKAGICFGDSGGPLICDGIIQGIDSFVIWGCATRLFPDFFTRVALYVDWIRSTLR
As to the kind of experiment: In vitro degradation/digest in the presence of PR3. The format is in vitro ADME. On the procedure: FIG. 8 is a logarithmic plot of the degradation over time of three polypeptides of the present disclosure, UGP022 (SEQ ID NO: 5), UGP025 (SEQ ID NO: 7) and UGP026 (SEQ ID NO: 8) in the presence of PR3, a protease implicated in the in vivo cleavage of Annexin 1.
In an attempt to improve the potency and increase the half-life of the UGP022 peptide of the present disclosure (SEQ ID NO: 5), a series of in vitro PR3 and FINE digests were conducted. […] This cleavage site is not believed to have been identified in the literature.
Degradation tests of three polypeptides of the present disclosure, UGP022 (SEQ ID NO:5), UGP025 (SEQ ID NO:7) and UGP026 (SEQ ID NO:8) in the presence of PR3, a protease implicated in the in vivo cleavage of Annexin 1, indicated better stability for polypeptides with Leucine substitution at position 24 relative to a polypeptide lacking that feature. Position 24 corresponds to position 25 of Annexin 1 because all tested polypeptides lack the methionine at position 1 of natural Annexin. A 47-residue polypeptide outperformed an otherwise identical 49-residue polypeptide. Similar results were obtained in degradation tests in the presence of FINE.
FIG. 8 is a logarithmic plot of the degradation over time of three polypeptides of the present disclosure, UGP022 (SEQ ID NO:5), UGP025 (SEQ ID NO:7) and UGP026 (SEQ ID NO:8) in the presence of PR3, a protease implicated in the in vivo cleavage of Annexin 1. […] Also, a 47-residue polypeptide amidated at its C-terminus outperformed an otherwise identical 49-residue polypeptide amidated at its C-terminus.

The nature of data set [5]: Anti-inflammatory properties, test not specified.

Consider three substances from US10072055B2, “Anti-inflammatory pharmaceutical products” (Resother Pharma APS, priority 2011, dated 2018).

“Also recorded” adds a separate entry of the source. Ends that are not written are not given here.

For “AMVSEFLKQAWFIENEEQEYVQTLKSSKGGPGSAVSPYPTFNPSSDV-NH2 [UGP025, Leu25-ANXA1(2-48)-NH2]”, the “activity in flow chamber assay at 100 fM” value in data set [1] (100 fM) was “slightly more active at the 100 fM concentration when compared to the UGP022 peptide”. Further, in data set [1], the “inhibition of PMN/neutrophil-endothelium interactions in flow chamber” value was “able to reduce the number of human PMNs interacting with an activated endothelium, acting specifically through the FPR2 receptor”. Moreover, the “activity in flow chamber assay at the higher concentrations tested” value in data set [1] (higher concentrations) is “less active at the higher concentrations tested”. In addition, the “induction of phagocytosis of apoptotic PMN” value (“induction” below) in data set [2] is “promoted phagocytosis of the apoptotic PMN”. Moreover, the “tissue protection / reduction of reperfusion injury (infarct size)” value (shortened to “tissue protection / reduction”) in data set [3] was “affording cardioprotection; also recorded: reduce the risk of reperfusion injury relative to a vehicle-only control”. Moreover, in data set [4], the “stability / resistance to PR3 degradation” value was “more resistant to PR3 and FINE than the UGP022 peptide”. For the same substance, in data set [5], the “anti-inflammatory properties in vitro and in vivo” value is given as “seeming more potent”.
With “AMVSEFLKQAWFIENEEQEYVQTLKSSKGGPGSAVSPYPTFNPSSDVAA-NH2 [UGP026, Leu25-ANXA1(2-50)-NH2]”, the “inhibition of PMN/neutrophil-endothelium interactions in flow chamber” value in data set [1] is on record as “able to reduce the number of human PMNs interacting with an activated endothelium, acting specifically through the FPR2 receptor”. Further, the “induction” value in data set [2] was “promoted phagocytosis of the apoptotic PMN”. Besides, the “tissue protection / reduction” value in data set [3] is recorded as “affording cardioprotection; also recorded: reduce the risk of reperfusion injury relative to a vehicle-only control”. In data set [4], the “stability / resistance to PR3 degradation” value is “more resistant to PR3 and FINE than the UGP022 peptide”. For the same substance, the “anti-inflammatory properties in vitro and in vivo” value in data set [5] is “possess anti-inflammatory properties both in vitro and in vivo”.
Regarding “AMVSEFLKQAWFIENEEQEYVQTVKSSKGGPGSAVSPYPTFNPSSDVAA-NH2 [UGP022, ANXA1(2-50)-NH2]”, the “inhibition of PMN/neutrophil-endothelium interactions in flow chamber” value in data set [1] is listed as “more potent than either the UGP021 peptide; also recorded: able to reduce the number of human PMNs interacting with an activated endothelium, acting specifically through the FPR2 receptor”. For the same substance, in data set [1] (human PMN), the “lowest concentration with significant anti-inflammatory effect on human PMN” value turned out to be 1 pM. The “induction” value in data set [2] is “displaying the higher ability to induce this process”. The “tissue protection / reduction” value in data set [3] is listed as “potent tissue protective properties; also recorded: reduce the risk of reperfusion injury relative to a vehicle-only control”. Also, the “cleavage sites by PR3” value in data set [4] (in vitro digest) is “Ala 10 (Ala11 relative to Annexin 1) and Val 21 (Val22 relative to Annexin 1); also recorded: Val 24 (Val25 relative to Annexin 1)”. In addition, in data set [5], the “in vitro results, amidated vs free acid precursor” value is “shows better in vitro results than with a free acid precursor”.
